The text below walks through data of US7932262B2 (Novartis AG, priority 2006, dated 2011).

For test [1], the system named is PC-3 cells. Put plainly: Cell Proliferation Assay (Cell Titer Glo), PC-3 cell line. The test is classed as cell-based. The note with it: Homo sapiens, PC-3, Cell Proliferation Assay, PC3; read-out: CPEC50 PC3. A digest of the protocol: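 PC-3 cells, 1000 cells/well, left to adhere 3-5 h, then exposed for 3 days at 37° C to compounds as 1:3 serial dilutions from 500× DMSO stocks diluted in growth medium. Medium then replaced with fresh medium and viability read by Cell Titer Glo luminescence.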
(In ATP-based viability assays light output follows the ATP content of the culture.)

In test [2] the target is T1, PDK1 kinase (Homo sapiens, UniProt O15530).
T1 sequence (O15530 1-556): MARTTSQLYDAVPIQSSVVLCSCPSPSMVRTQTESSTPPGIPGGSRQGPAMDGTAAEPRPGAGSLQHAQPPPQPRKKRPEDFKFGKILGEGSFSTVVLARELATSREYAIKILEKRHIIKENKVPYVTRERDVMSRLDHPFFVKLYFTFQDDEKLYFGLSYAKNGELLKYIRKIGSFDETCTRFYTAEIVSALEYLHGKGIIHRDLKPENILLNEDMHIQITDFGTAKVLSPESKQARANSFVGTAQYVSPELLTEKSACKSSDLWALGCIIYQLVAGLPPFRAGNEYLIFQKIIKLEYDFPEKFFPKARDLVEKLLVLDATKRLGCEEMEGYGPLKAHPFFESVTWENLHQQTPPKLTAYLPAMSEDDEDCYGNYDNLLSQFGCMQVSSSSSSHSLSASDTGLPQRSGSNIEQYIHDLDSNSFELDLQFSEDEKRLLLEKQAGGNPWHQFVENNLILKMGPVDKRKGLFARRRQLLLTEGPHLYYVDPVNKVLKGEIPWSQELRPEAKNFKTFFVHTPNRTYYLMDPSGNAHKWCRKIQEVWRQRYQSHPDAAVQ
Put plainly: PDK1 Kinase Alpha Screen Assay. The test is classed as biochemical. Particulars: PDK1 Kinase Alpha Screen Assay; read-out: PDK1 IC50. The method, then:
1. PDK1 Kinase Alpha Screen Assay
Reagents/Concentrations: The PDK1-4 peptide substrate, biotin-[…]-NH2, was purchased from the Tufts University Core Facility. The final concentration of PDK1-4 peptide substrate was 50 nM The ATP substrate (Adenosine-5′-triphosphate) was purchased from Roche Diagnostics. The final concentration of ATP substrate was 10 uM. Phospho-(Ser/Thr) PKA substrate antibody was purchased from Cell Signaling Technology. The final concentration of antibody was 0.3 mg/ml. The Alpha Screen Protein A detection kit containing donor and acceptor beads was purchased from PerkinElmer Life Sciences. The final concentration of both donor and acceptor beads was 25 μg/ml. Alpha Screen was used for detection. The biotinylated-PDK1-4 peptide was phosphorylated by PDK1 kinase using the ATP substrate. The biotinylated-PDK1-4 peptide substrate was bound to the streptavidin coated donor bead. The antibody was bound to the protein A coated acceptor bead. The antibody bound to the phosphorylated form of the biotinylated PDK-1 peptide substrate, bringing the donor and acceptor beads into close proximity. Laser irradiation of the donor bead at 680 nm generated a flow of short-lived singlet oxygen molecules. When the donor and acceptor beads were in close proximity, the reactive oxygen generated by the irradiation of the donor beads initiated a luminescence/fluorescence cascade in the acceptor beads. This process led to a highly amplified signal with output in the 530-620 nm range. Assays were carried out in 50 mM Tris, pH=7.5, 10 mM MgCl2, 0.1% Bovine Serum Albumin, 0.01% Tween-20, 2 mM Dithiolthreitol, 2.5% Dimethyl Sulfoxide. Reactions were stopped by adding 50 mM Tris, pH=7.5, 90 mM EDTA, 0.1% Bovine Serum Albumin, 0.01% Tween-20.
Procedure: To 10 μl of PDK1-4 peptide, 0.5 μl of test compound in dimethyl sulfoxide is added. PDK1 kinase and ATP are mixed. 10 μl of the PDK1 kinase/ATP mix is added to start the reaction. The reaction is allowed to proceed for 3-18 hours. The reactions are stopped by adding 10 μl of the EDTA-containing stop buffer. Beads are mixed with antibody. 25 μl of the bead/antibody mix is added to the stopped reactions. Plates are incubated at room temperature overnight to allow for detection development before being read. The assay is run is a 384-well format. […]

One may read the IC50 as the midpoint of a concentration-inhibition curve.

The structures appear in SMILES notation.

Consider `Cc1ccc(Nc2ncc3ccc(OC4CCNCC4)cc3n2)cc1NS(C)(=O)=O` [Compound 325], for which the EC50 in test [1] lay in the range of 5 to 10 µM. Further, the half-maximal inhibitory concentration (IC50) in test [2] was below 5 µM.

Take `CC(C)N1CCC(c2c(O)ccc3cnc(Nc4nc5ccccc5s4)nc23)CC1` [Compound 326, 2-(benzo[d]thiazol-2-ylamino)-8-(1-isopropylpiperidin-4-yl)quinazolin-7-ol]: in test [1], the EC50 is 5 to 10 µM. In addition, the IC50 in test [2] is below 5 µM.

With `Cc1cc(Nc2ncc3ccc(OC4CCN(C(C)C)CC4)cc3n2)ccc1F` [Compound 327, N-(4-fluoro-3-methylphenyl)-7-(1-isopropyl-piperidin-4-yloxy)-quinazolin-2-amine], in test [1], the EC50 was 5 to 10 µM. Moreover, in test [2], the IC50 is below 5 µM.

In the case of `CC(C)N1CCC(c2c(O)ccc3cnc(Nc4ccc(N5CCOCC5)cc4)nc23)CC1` [Compound 328, 8-(1-isopropylpiperidin-4-yl)-2-(4-morpholinophenylamino)quinazolin-7-ol], in test [1], the EC50 was below 5 µM. Further, the IC50 in test [2] was below 5 µM.

As for `CC(C)NC(=O)c1ccc(Nc2ncc3ccc(OC4CCN(C(C)C)CC4)cc3n2)cc1` [Compound 329, N-isopropyl-4-(7-(1-isopropylpiperidin-4-yloxy)quinazolin-2-ylamino)benzamide], the EC50 in test [1] was below 5 µM. For the same molecule, the IC50 in test [2] was below 5 µM.

Take `O=c1[nH]c2ccc(Nc3ncc4ccc(OC5CCNCC5)cc4n3)cc2[nH]1` [Compound 330, 5-(7-(piperidin-4-yloxy)-quinazolin-2-ylamino]-1H-benzo[d]imidazol-2(3H)-one]: in test [1], the EC50 lay in the range of 5 to 10 µM. In addition, in test [2], the IC50 is below 5 µM.

`CC(C)N1CCC(Oc2ccc3cnc(Nc4ccc(S(C)(=O)=O)cc4)nc3c2)CC1` [Compound 331, 7-(1-isopropylpiperidin-4-yloxy)-N-(4-(methylsulfonyl)phenyl)quinazolin-2-amine]: the EC50 in test [1] is below 5 µM. In test [2], the concentration for half-maximal inhibition (IC50) is below 5 µM.

As for `O=S(=O)(c1ccc(Nc2ncc3ccc(OC4CCNCC4)cc3n2)cc1)N1CCOCC1` [Compound 332], the EC50 in test [1] is below 5 µM. The half-inhibitory concentration (IC50) in test [2] is below 5 µM.

Consider `O=S(=O)(c1ccc(Nc2ncc3ccc(OC4CCN(CCF)CC4)cc3n2)cc1)N1CCOCC1` [Compound 333, 7-(1-(2-fluoroethyl)piperidine-4-yloxy)-N-(4-(morpholinosulfonyl)phenyl)quinazolin-2-amine], for which the EC50 in test [1] was below 5 µM. In addition, the IC50 in test [2] is below 5 µM.

On to `O=S(=O)(c1ccc(Nc2ncc3ccc(OC4CCN(CC(F)F)CC4)cc3n2)cc1)N1CCOCC1` [Compound 334, 7-(1-(2,2-difluoroethyl)piperidin-4-yloxy)-N-(4-(morpholinosulfonyl)phenyl)quinazolin-2-amine], for which the EC50 in test [1] lay in the range of 5 to 10 µM. For the same molecule, the IC50 in test [2] is below 5 µM.

As to `Fc1ccc(Nc2ncc3cccc(OC4CCNCC4)c3n2)cc1` [Compound 335], the EC50 in test [1] is below 5 µM. For the same molecule, the IC50 in test [2] is below 5 µM.

For the molecule `Brc1ccc(OC2CCNCC2)c2nc(Nc3cccc(N4CCOCC4)c3)ncc12` [Compound 336, 5-bromo-N-(3-morpholinophenyl)-8-(piperidin-4-yloxy)quinazolin-2-amine], the EC50 in test [1] lay within 5 to 10 µM. In test [2], the IC50 was below 5 µM.

`CC(C)NC(=O)c1ccc(Nc2ncc3c(Br)ccc(OC4CCNCC4)c3n2)cc1` [Compound 337, 4-(5-bromo-8-(piperidin-4-yloxy)quinazolin-2-ylamino)-N-isopropylbenzamide]: in test [1], the EC50 was below 5 µM. Besides, the IC50 in test [2] is below 5 µM.

As to `Clc1cc(Nc2ncc3c(Br)ccc(OC4CCNCC4)c3n2)ccc1N1CCOCC1` [Compound 338, 5-bromo-N-(3-chloro-4-morpholinophenyl)-8-(piperidine-4-yloxy) quinazolin-2-amine], the EC50 in test [1] was below 5 µM. For the same molecule, the IC50 in test [2] is below 5 µM.

For the molecule `Fc1cc(Nc2ncc3c(Br)ccc(OC4CCNCC4)c3n2)ccc1N1CCOCC1` [Compound 339, 5-bromo-N-(3-fluoro-4-morpholinophenyl)-8-(piperidin-4-yloxy)quinazolin-2-amine], the EC50 in test [1] is below 5 µM. Moreover, the IC50 in test [2] is below 5 µM.

Turning to `Cc1ccc(OC2CCNCC2)c2nc(Nc3ccc(C(=O)NC(C)C)cc3)ncc12` [Compound 340, N-isopropyl-4-(5-methyl-8-(piperidin-4-yloxy)quinazolin-2-ylamino)benzamide], the EC50 in test [1] is 5 to 10 µM. Further, the IC50 in test [2] was below 5 µM.

For the molecule `O=C(NC1CC1)c1ccc(Nc2ncc3c(Br)ccc(OC4CCNCC4)c3n2)cc1` [Compound 341, 4-(5-bromo-8-(piperidin-4-yloxy)quinazolin-2-ylamino)-N-cyclopropylbenzamide], in test [1], the EC50 lay in the range of 5 to 10 µM. Moreover, the IC50 in test [2] is below 5 µM.

Take `CC(C)NS(=O)(=O)c1ccc(Nc2ncc3c(Br)ccc(OC4CCNCC4)c3n2)cc1` [Compound 342, 4-(5-bromo-8-(piperidin-4-yloxy)quinazolin-2-ylamino)-N-isopropylbenzenesulfonamide]: the EC50 in test [1] was below 5 µM. Moreover, in test [2], the IC50 is below 5 µM.

With `O=C(c1ccc(Nc2ncc3ccc(-c4cnn(CCF)c4)cc3n2)cc1)N1CCOCC1` [Compound 343, (4-(7-(1-(2-fluoroethyl)-1H-pyrazol-4-yl)quinazolin-2-ylamino)phenyl)(morpholino)methanone], the EC50 in test [1] is below 5 µM. For the same molecule, the IC50 in test [2] was below 5 µM.

Turning to `O=C(c1ccc(Nc2ncc3ccc(-c4cn[nH]c4)cc3n2)cc1)N1CCOCC1` [Compound 344, (4-(7-(1H-pyrazol-4-yl)quinazolin-2-ylamino)phenyl)(morpholino)methanone], in test [1], the EC50 was below 5 µM. Also, in test [2], the IC50 is below 5 µM.

On to `CN1CCC(Nc2ccc3cnc(Nc4ccc(C(=O)N5CCOCC5)cc4)nc3c2)CC1` [Compound 345, (4-(7-(1-methylpiperidin-4-ylamino)quinazolin-2-ylamino)phenyl)(morpholino)methanone], for which the EC50 in test [1] was below 5 µM. In addition, the IC50 in test [2] was below 5 µM.

Take `CN1CCC(Nc2ccc3cnc(Nc4ccc(S(=O)(=O)N5CCOCC5)cc4)nc3c2)CC1` [Compound 346, N7-(1-methylpiperidin-4-yl)-N2-(4-(morpholinosulfonyl)phenyl)quinazoline-2,7-diamine]: in test [1], the EC50 was below 5 µM. The IC50 in test [2] was below 5 µM.

`O=C(c1ccc(Nc2ncc3ccc(NC4CCNCC4)cc3n2)cc1)N1CCOCC1` [Compound 347, morpholino(4-(7-(piperidin-4-ylamino)quinazolin-2-ylamino)phenyl)methanone]: the EC50 in test [1] is below 5 µM. The IC50 in test [2] is below 5 µM.

Regarding `CN1CCC(CNc2ccc3cnc(Nc4ccc(C(=O)N5CCOCC5)cc4)nc3c2)CC1` [Compound 348], in test [1], the EC50 was 5 to 10 µM. Further, in test [2], the IC50 is below 5 µM.

`COCCn1cc(-c2ccc3cnc(Nc4ccc(C(=O)N5CCOCC5)cc4)nc3c2)cn1` [Compound 349, (4-(7-(1-(2-methoxyethyl)-1H-pyrazol-4-yl)quinazolin-2-ylamino)phenyl)(morpholino)methanone]: the EC50 in test [1] is below 5 µM. Also, in test [2], the IC50 was below 5 µM.

As to `CC(C)NS(=O)(=O)c1ccc(Nc2ncc3ccc(NC4CCN(C)CC4)cc3n2)cc1` [Compound 350, N-isopropyl-4-(7-(1-methylpiperidin-4-ylamino)quinazolin-2-ylamino)benzenesulfonamide], the EC50 in test [1] was below 5 µM. Moreover, in test [2], the IC50 was below 5 µM.

In the case of `O=C(c1ccc(Nc2ncc3ccc(NCC4CCNCC4)cc3n2)cc1)N1CCOCC1` [Compound 351, morpholino(4-(7-(piperidin-4-ylmethylamino)quinazolin-2-ylamino)phenyl)methanone], the EC50 in test [1] fell in the range of 5 to 10 µM. In addition, in test [2], the IC50 was below 5 µM.
